The record followed here is patent publication US20040180961A1, “Compositions and preparation methods for bioavailable oral aceclofenac dosage forms” (priority 2001, published 2004).

This series can be described thus: Dissolution of aceclofenac in pure artificial gastric juice (paddle method). The format is physicochemical. The protocol:
The pharmaceutical preparation containing acelcofenac was completely dissolved in 500 ml of an ethanol solution containing phosphate buffer (pH 6.8) at a volume ratio of 50%, where a preparation further containing substances of low solubility was shaken for 10 min. The resultant solution was centrifuged at 15,000 rpm for 2 min, and then filtered with a 0.45 μm membrane filter. After properly diluting 1 ml of the filtered solution, sample was used in quantification of aceclofenac, using HPLC. In a analysis of aceclofenac, a column was C18 ODS column (4.6×150 mm, 5 μm), an absorbance was at a wave length of 282 nm, a mobile phase was a mixture of MeOH:0.02 M KH2PO4 (65:35), a flow rate was 1 ml/min. 20 μl of sample was injected. Quantification of aceclofenac was accomplished with width ratio of aceclofenac and internal standard (Ethyl paraben).
Dissolution rate of acelcofenac contained in the pharmaceutical preparation was analyzed according to the dissolution test method disclosed in a guidebook “Korea Pharmacopeia (7th revision)”. A NaCl—HCl buffer solution (pH 1.4±0.1) was used as artificial gastric juice, supplemented with Tween 80 in a volume ratio of 0.3% according to intended use. 0.02 M phosphate-buffered solution (pH 6.8±0.1) was used as an artificial intestinal juice. Dissolution was performed according to the paddle method at a stirring rate of 50 rpm and a dissolution temperature of 37±0.5° C., using 500 ml of dissolution solution. […] The collected sample was centrifuged at 15,000 rpm for 2 min and filtered using a 0.45 μm membrane filter. Quantification of aceclofenac was accomplished by using HPLC. In analyzing the dissolution rate of aceclofenac, column was C18 ODS column (4.6×150 mm, 5 μm), absorbance was a wave length of 282 nm, a mobile phase was a mixture of MeOH:0.02 M KH2PO4 (65:35), and a flow rate was 1 ml/min. 20 μl of sample was injected. Quantification of aceclofenac was accomplished with width ratio of aceclofenac and internal standard (Ethyl paraben) Dissolution rate (%) of aceclofenac contained in the solid powder preparations, prepared in example, was measured according to Experimental 5. Content of aceclofenac obtained in Experimental Example 4 was used as 100% and dissolution rate of aceclofenac contained in the solid powder preparations prepared in example was given as a percentage. Dissolution concentration (μg/ml) and dissolution rate (%) of aceclofenac contained in solid powder preparation in artificial gastric juice were measured, the results are given in Tables 1 to 3, below, […]

Turning to `O=C(O)COC(=O)Cc1ccccc1Nc1c(Cl)cccc1Cl` [Aceclofenac], the Dissolution concentration runs as follows: (15 min) 0.075 µg/mL; (30 min) 0.063 µg/mL; (45 min) 0.088 µg/mL; (60 min) 0.090 µg/mL; (90 min) 0.236 µg/mL. The Dissolution rate entry is “(0.04) %” (15 min); “(0.03) %” (30 min); “(0.05) %” (45 min); “(0.05) %” (60 min); “(0.12) %” (90 min).
